This assay deals with elevated heart rate. Put plainly: In vivo dog experiments: heart rate offset after iontophoretic ESA drug with pretreatment (Example A). Also noted: species or system labrador dogs. The settings on record: for Offset Slope Component (0-5) min: 0-5 min after heart rate begins to decline; for Offset Slope Component (5-10) min: 5-10 min after decline begins; for Offset Slope Component (10-30) min: 10-30 min after decline begins; for Change in Heart Rate (peak minus baseline) / Peak Heart Rate: Table II; for Total time (startup) thru offset plateau: w/in 20 bpm of baseline / Total time (startup) thru offset plateau: in words / t 1/2 of elevated heart rate decay: Table IV; for Onset Slope: baseline at onset time to peak heart rate; for Offset time: drug delivery stopped until within 20 bpm of baseline; for Offset Slope: drug shut-off to 20 bpm above baseline; for Delay: drug shut-off to start of heart rate decline; for t 1/2 of elevated heart rate decay: exponential fit; for Reduction in offset time: iontophoretic pre-delivery; for Onset time: start of delivery to start of increase in heart rate; for Time Start Decline: time when elevated heart rate began to decline.

For `COC(=O)c1cccnc1` [Methyl Nicotinate, methyl ester of nicotinic acid], the “Total time (startup) thru offset plateau: w/in 20 bpm of baseline” value was found to be 55 min, the “t 1/2 of elevated heart rate decay” value was 21.36 min and the “Reduction in offset time” value was “also reduce offset time”. Under “listed as 9”, the “Offset Slope Component (0-5) min” value is reported as -2.40 beats per minute per minute, the “Offset Slope Component (5-10) min” value is recorded as -0.40 beats per minute per minute, the “Offset Slope Component (10-30) min” value is -0.28 beats per minute per minute and the “Change in Heart Rate (peak minus baseline)” value is recorded as 55 bpm. Under “listed as 9”, the “Peak Heart Rate” value came out at 117 bpm, the “Total time (startup) thru offset plateau: in words” value (from here on “Total time … in words”) is “Never Reached w/in 20 bpm of baseline”, the “Onset Slope” value is reported as 4.20 beats per minute per minute and the Offset time was determined as 29.00 min. Also, where the note is “listed as 9”, the “Offset Slope” value was -0.40 beats per minute per minute, the Delay was 6.50 min, the Onset time stood at 15.00 min and the “Time Start Decline” value is listed as 25.00 min. Further, for the setting “listed as 10”, the “Offset Slope Component (0-5) min” value is reported as -1.40 beats per minute per minute, the “Offset Slope Component (5-10) min” value is -2.40 beats per minute per minute, the “Offset Slope Component (10-30) min” value is listed as -1.90 beats per minute per minute and the “Change in Heart Rate (peak minus baseline)” value amounted to 81 bpm. Also, under “listed as 10”, the “Peak Heart Rate” value is 152 bpm, the “Total time … in words” value was “never lower”, the “Onset Slope” value was 12.30 beats per minute per minute and the Offset time was 31.00 min. Further, where the note is “listed as 10”, the “Offset Slope” value was -1.70 beats per minute per minute, the Delay is 2.50 min, the Onset time turned out to be 7.00 min and the “Time Start Decline” value amounted to 20.50 min.
For the molecule `CC[C@@H]1C(=O)OC[C@@H]1Cc1cncn1C` [Pilocarpine], the “Total time … in words” value is recorded as “Never reached w/in 20 bpm of baseline”, the “Total time (startup) thru offset plateau: w/in 20 bpm of baseline” value is 60 min and the “Reduction in offset time” value is “also reduce offset time”. Besides, for the setting “listed as 7”, the “Offset Slope Component (0-5) min” value was -1.70 beats per minute per minute, the “Offset Slope Component (5-10) min” value is -2.50 beats per minute per minute, the “Offset Slope Component (10-30) min” value was -1.10 beats per minute per minute and the “Change in Heart Rate (peak minus baseline)” value was determined as 73 bpm. Besides, where the note is “listed as 7”, the “Peak Heart Rate” value came to 133 bpm, the “Onset Slope” value is listed as 11.60 beats per minute per minute, the Offset time came out at 38.00 min and the “Offset Slope” value was -1.10 beats per minute per minute. Moreover, where the note is “listed as 7”, the Delay was determined as 1.30 min, the “t 1/2 of elevated heart rate decay” value worked out at 28.85 min, the Onset time turned out to be 6.70 min and the “Time Start Decline” value is on record as 23.80 min. In addition, for the setting “listed as 8”, the “Offset Slope Component (0-5) min” value is recorded as -7.60 beats per minute per minute, the “Offset Slope Component (5-10) min” value is listed as -1.40 beats per minute per minute, the “Offset Slope Component (10-30) min” value is listed as -1.00 beats per minute per minute and the “Change in Heart Rate (peak minus baseline)” value came out at 114 bpm. Besides, where the note is “listed as 8”, the “Peak Heart Rate” value came to 191 bpm, the “Onset Slope” value is given as 11.20 beats per minute per minute, the Offset time was 36.00 min and the “Offset Slope” value was -1.70 beats per minute per minute. Also, where the note is “listed as 8”, the Delay is listed as 5.30 min, the “t 1/2 of elevated heart rate decay” value was 21.36 min, the Onset time was 13.00 min and the “Time Start Decline” value is reported as 24.30 min. Further, the “Percent decline in heart rate, ranking” value (5-10 minute interval, FIG. 1) was “next highest percent declines”. In addition, where the note is “FIG. 2”, the “Delay to onset of heart rate decline, ranking” value is reported as “shortest delay”.
For `Cc1ccc(N(CC2=NCCN2)c2cccc(O)c2)cc1` [Phentolamine], the “Reduction in offset time” value was “found effective when pre-delivered iontophoretically”.

The record behind these values is US5383848A, “Iontophoretic administration of drugs” (Gensia, Inc., priority 1991, dated 1995).
